According to patent US9610293B2, “Co-micronization product comprising ulipristal acetate” (LABORATOIRE HRA-PHARMA, priority 2012, dated 2017):

What was measured:
[1] = In vitro dissolution of UPA from gelatin gel capsules (paddle device, European Pharmacopoeia §2.9.3, 900 ml); format: physicochemical; details: 30 mg UPA capsule, 900 ml gastric pH buffer + 0.1% SDS, 37°C, 50 rpm, mean of 3
Procedure: The in vitro dissolution test can be carried out using any commercially available device comprising paddles. Example 1 hereinafter presents implementing conditions for determining the in vitro dissolution rate of a comicronizate according to the invention. Briefly, an amount of comicronizate representing 30 mg of active ingredient is placed in a gelatin gel capsule. This gel capsule is then placed in 900 ml of a medium buffered at gastric pH, comprising 0.1% of SDS, at 37±0.5° C., and subjected to stirring at 50 revolutions per minute (rpm) (speed of rotation of the paddles of the dissolution device).
For each comicronizate obtained, hard gelatin gel capsules containing an amount of comicronizate corresponding to 30 mg of UPA per capsule were prepared. The studies of in vitro dissolution of UPA as comicronizate were carried out using these capsules according to the European Pharmacopoeia in §2.9.3, using a paddle dissolution device. For each comicronizate, a gel capsule containing said comicronizate was placed in a bowl of the dissolution device containing 900 ml of a dissolution medium. The dissolution medium is an aqueous solution buffered at gastric pH and comprising 0.1% by weight of SDS. The conditions for carrying out the in vitro dissolutions are the following: • Paddle rotation speed: 50 revolutions per minute (rpm) • Temperature: 37° C.±0.5° C.
The dissolution of the UPA was monitored by spectrophotometry.
By way of control experiment, a gelatin gel capsule containing 30 mg of ulipristal acetate micronized alone (i.e. UPA micronized in the absence of any co-micronization excipient) was used.
For each comicronizate, the dissolution experiment was reproduced 3 times. […]

[2] = Pharmacokinetic study in rats (plasma UPA by LC/MS/MS); format: in vivo; details: female, OFA(SD), rat, 4 mg UPA per kg, powder into the stomach, pooled plasma
Procedure: The pharmacokinetic study was carried out on female OFA(SD) rats weighing between 0.206 and 0.251 kg. The animals were deprived of food for 16 hours before the administration of the samples. The animals were placed in cages, the temperature of which was maintained between 20 and 25° C.; the day/night cycles were 12 h each (6 am-6 pm) and the air was conditioned using a ventilation system.
The samples tested are the following: • Comicronizate of ulipristal acetate/SDS, 1/1 ratio • Powder of ulipristal acetate micronized in the absence of any excipient (UPA micronized alone)
A predetermined amount of powder was administered by means of an oesophageal tube using a cannula. The powder was introduced into the stomach of each animal using a catheter. The dose administered corresponds to 4 mg of ulipristal acetate per kg.
Blood samples of 300 μl were taken from the (left or right) jugular of the rats. In order to avoid excessively high blood sampling, the rats were divided into 3 groups of 6 rats as follows:
The samples were collected on heparin tubes and then centrifuged within the hour for 7-8 min at 1600 g at 4° C. At each sampling time, the plasma of the 6 rats of the group is “pooled”.
The ulipristal acetate was assayed by LC/MS/MS under the following conditions: • Mobile phase: Methanol/distilled water (70/30, V/V)+1% acetic acid • Column: BDS Hypersil phenyl, 100×2.1 mm, 5 μm • Elution mode: isocratic • flow rate: 0.400 ml/min • Injection volume: 10.0 μl • Needle cleaning liquid: Acetonitrile/isopropanol/acetone (40/40/20, V/V/V) 2. Results

[3] = single dose of 30 mg within 120 hours following unprotected intercourse; cited from earlier work
[4] = chronic administration, 5 mg or 10 mg per day; cited from earlier work

Row | Structure (SMILES) | Percentage of UPA released relative to initial amount per gel capsule ([1]; t=0 min) [%] | Percentage of UPA released relative to initial amount per gel capsule ([1]; t=1 min) [%] | Percentage of UPA released relative to initial amount per gel capsule ([1]; t=5 min) [%] | Percentage of UPA released relative to initial amount per gel capsule ([1]; t=7.5 min) [%] | Percentage of UPA released relative to initial amount per gel capsule ([1]; t=10 min) [%] | Percentage of UPA released relative to initial amount per gel capsule ([1]; t=15 min) [%] | Percentage of UPA released relative to initial amount per gel capsule ([1]; t=20 min) [%] | Percentage of UPA released relative to initial amount per gel capsule ([1]; t=20 min, listed as Micronized UPA (in the absence of excipient)) [%] | Percentage of UPA released relative to initial amount per gel capsule ([1]; t=20 min, listed as ulipristal acetate which has been micronized in the absence of excipient) | Percentage of UPA released relative to initial amount per gel capsule ([1]; t=30 min) [%] | Percentage of UPA released relative to initial amount per gel capsule ([1]; t=45 min) [%] | Percentage of UPA released relative to initial amount per gel capsule ([1]; t=60 min) [%] | Tmax ([2]; oral) [h] | AUC(0-inf) ([2]; po, 4 mg/kg) [ng·h/mL] | AUC(0-t) ([2]; po, 4 mg/kg) [ng·h/mL] | Cmax ([2]; po, 4 mg/kg) [ng/mL] | Emergency contraceptive effect [3] | Effect on symptoms associated with uterine fibromas [4]
1 | CC(=O)O[C@]1(C(C)=O)CCC2C3CCC4=CC(=O)CCC4=C3[C@@H](c3ccc(N(C)C)cc3)C[C@@]21C (stereo partly drawn) [UPA micronized alone, 17α-acetoxy-11β-[4-(N,N-dimethylamino)-phenyl]-19-norpregna-4,9-diene-3,20-dione] | 0.0 | 0.0 | 5.5 | 15.00 | 22.30 | 30.00 | 34.30 | 34.30 | approximately 35% | 39.50 | 47.50 | 53.80 | 1.25 | 1380 | 1340 | 447 | – | –
2 | CC(=O)O[C@]1(C(C)=O)CCC2C3CCC4=CC(=O)CCC4=C3[C@@H](c3ccc(N(C)C)cc3)C[C@@]21C (stereo partly drawn) [UPA, 17α-acetoxy-11β-[4-(N,N-dimethylamino)-phenyl]-19-norpregna-4,9-diene-3,20-dione] | – | – | – | – | – | – | – | – | – | – | – | – | – | – | – | – | makes it possible to prevent an unwanted pregnancy | significantly reduce the symptoms associated with uterine fibromas
